Assay results as given in US20050175589A1, “Anti-neoplastic viral agents” (priority 2001, published 2005).

Key:
[1] = system: Hct116 cells with homozygous deletion of p53
Procedure: (§1) (a) Sensitivity of colon cancer cell lines to 5-FU. Cells were stained four days after addition of the drug. (b to e, g) Cytopathic effect assays using 10-fold dilutions of virus starting from a concentration of 10 pfu/cell. Fresh medium was added four days after infection and cells were stained 5 (SW480), 7 (Hct116 and Hct116^−/−), or 8 (HT29 and HLF) days post-infection. (f) 5-FC was added either immediately after infection (early, E) or four days after infection (late, L). Cells were stained 8 days after infection.
(§2) Cells in six-well plates were infected with ten-fold dilutions of virus in DMEM. Two hours after infection, the medium was replaced with complete medium containing or not 100 μg/ml of 5-fluorocytosine (Sigma, St. Louis, USA). Four days after infection, new medium was added. Late addition of 5-FC was performed at that time. After five to eight days (see legend to FIG. 4), the cells were fixed with 4% formaldehyde in PBS and stained with crystal violet. For the sensitivity to 5-fluorouracil (Sigma, St. Louis, USA), the drug was added at various concentrations for four days before staining with crystal violet.

SW480 cells = system: SW480 cells
Procedure: as §1, §2

In the case of `O=c1[nH]cc(F)c(=O)[nH]1` [5-FU, 5-fluorouracil], the “resistance of p53-deleted Hct116 cells to 5-FU relative to parental cells” value [1] is reported as “only slightly more resistant than the parental cells” and the “resistance of SW480 cells to 5-FU relative to the other cell lines” value (SW480 cells) is reported as “at least 10 fold”.
